What all share (assay type): functional
Experiment [1] concerns Bacillus subtilis. The experiment in a line: Antibacterial activity against Bacillus subtilis isolate 11 harboring 274-295 deficient KsgA mutant and expressing amino acid exchange at P92F, Thr 97- stop codon in KsgA gene.
For experiment [2], the system named is Bacillus subtilis. As to the kind of experiment: Antibacterial activity against Bacillus subtilis isolate 6 harboring 272C-G KsgA mutant and expressing amino acid exchange at Ser 91 -stop codon in KsgA gene.
Experiment [3] deals with Bacillus subtilis. The experiment in a line: Antibacterial activity against Bacillus subtilis isolate 17 harboring 709-850 deficient KsgA mutant and expressing amino acid exchange at K237L in KsgA gene.
For experiment [4], the system named is Bacillus subtilis. The experiment in a line: Antibacterial activity against Bacillus subtilis isolate 9 harboring 515G-GG KsgA mutant and expressing amino acid exchange at S173L,Asn 200 -stop codon in KsgA gene.
Experiment [5] has as its system Bacillus subtilis. As to the kind of experiment: Antibacterial activity against Bacillus subtilis isolate 18 harboring 495-525 deficient KsgA mutant and expressing amino acid exchange at N165E, Ala 177- stop codon in KsgA gene.
In experiment [6] the test system is Bacillus subtilis. As to the kind of experiment: Antibacterial activity against Bacillus subtilis isolate 8 harboring 515G-GGG KsgA mutant and expressing amino acid exchange at S173A, Met 188 -stop codon in KsgA gene.
Experiment [7] relates to Bacillus subtilis. The experiment in a line: Antibacterial activity against Bacillus subtilis isolate 12 harboring 597-615 deficient KsgA mutant and expressing amino acid exchange at N200F, Asp 202- stop codon in KsgA gene.
The subject of experiment [8] is Bacillus subtilis. As to the kind of experiment: Antibacterial activity against Bacillus subtilis isolate 7 harboring 198T-TT KsgA mutant and expressing amino acid exchange at A67C, Glu 77- stop codon in KsgA gene.
The subject of experiment [9] is Bacillus subtilis. The experiment in a line: Antibacterial activity against Bacillus subtilis isolate KO-847 KsgA mutant after 2 days. Conditions: isolate KO-847, 48 h.
The test system of experiment [10] is Bacillus subtilis. As to the kind of experiment: Antibacterial activity against Bacillus subtilis isolate KO-876 KsgA mutant and harboring 22C-GT speD mutant after 2 days. Conditions: isolate KO-876, 48 h.
In experiment [11] the test system is Bacillus subtilis. The experiment in a line: Antibacterial activity against Bacillus subtilis isolate 16 harboring 181G-GG KsgA mutant and expressing amino acid exchange at A61G, Glu 77- stop codon in KsgA gene.
Experiment [12] deals with Bacillus subtilis. As to the kind of experiment: Antibacterial activity against Bacillus subtilis isolate 13 harboring 393C-G KsgA mutant and expressing amino acid exchange at Tyr 131- stop codon in KsgA gene.
Experiment [13] concerns Bacillus subtilis. The experiment in a line: Antibacterial activity against Bacillus subtilis isolate 15 harboring 324C-CTC KsgA mutant and expressing amino acid exchange at K109S, Val 125 - stop codon in KsgA gene.
Experiment [14] relates to Bacillus subtilis. The experiment in a line: Antibacterial activity against Bacillus subtilis isolate 19 harboring 230A-G KsgA mutant and expressing amino acid exchange at A61G, E77K in KsgA gene.
The subject of experiment [15] is Bacillus subtilis. The experiment in a line: Antibacterial activity against Bacillus subtilis isolate 14 harboring 608C-T KsgA mutant and expressing amino acid exchange at S203F in KsgA gene.
For experiment [16], the system named is Bacillus subtilis. The experiment in a line: Antibacterial activity against Bacillus subtilis isolate 2 harboring 708-717 deficient KsgA and expressing amino acid exchange at K235S, Leu240-stop codon in KsgA gene.
For experiment [17], the system named is Bacillus subtilis. As to the kind of experiment: Antibacterial activity against Bacillus subtilis isolate 3 harboring 301C-T KsgA and expressing amino acid exchange at Gln101-stop codon in KsgA gene.
The test system of experiment [18] is Bacillus subtilis. The experiment in a line: Antibacterial activity against Bacillus subtilis isolate KO-894 speD mutant after 2 days. Conditions: isolate KO-894, 48 h.
The test system of experiment [19] is Bacillus subtilis. As to the kind of experiment: Antibacterial activity against Bacillus subtilis isolate KO-879 KsgA mutant and harboring 236G-T speD mutant and expressing amino acid exchange at S79I in speD gene after 2 days. Conditions: isolate KO-879, 48 h.
For experiment [20], the system named is Bacillus subtilis. As to the kind of experiment: Antibacterial activity against wild-type Bacillus subtilis 168 after 15 hrs. Conditions: subsp. subtilis str. 168, 15 h.
Experiment [21] has as its system Bacillus subtilis. As to the kind of experiment: Antibacterial activity against Bacillus subtilis isolate KO-877 KsgA mutant and harboring 191A-T speD mutant and expressing amino acid exchange at G64Vin speD gene after 2 days. Conditions: isolate KO-877, 48 h.
Experiment [22] deals with Bacillus subtilis. As to the kind of experiment: Antibacterial activity against Bacillus subtilis RIK543 after 15 hrs. Conditions: RIK543, 15 h.
Experiment [23] deals with Escherichia coli. As to the kind of experiment: Antibacterial activity against Escherichia coli BW25113 after 15 hrs. Conditions: BW25113, 15 h.
Experiment [24] concerns Bacillus subtilis. The experiment in a line: Antibacterial activity against Bacillus subtilis isolate KO-878 KsgA mutant and harboring 193T-A speD mutant and expressing amino acid exchange at S65T in speD gene after 2 days. Conditions: isolate KO-878, 48 h.
In experiment [25] the test system is Bacillus subtilis. As to the kind of experiment: Antibacterial activity against Bacillus subtilis isolate 5 harboring 478-492 deficient KsgA and expressing amino acid exchange at Glu 160, Ala 164 deletion in KsgA gene.
In experiment [26] the test system is Bacillus subtilis. The experiment in a line: Antibacterial activity against Bacillus subtilis isolate 1 harboring 253-261 deficient KsgA and expressing amino acid exchange at 85-87 Ile, Leu, Lys-deletionin KsgA gene.
Experiment [27] deals with Bacillus subtilis. As to the kind of experiment: Antibacterial activity against Bacillus subtilis isolate 4 harboring 709-850 deficient KsgA and expressing amino acid exchange at K237L in KsgA gene.
The subject of experiment [28] is Bacillus subtilis. As to the kind of experiment: Antibacterial activity against Bacillus subtilis isolate 10 harboring 706C-T KsgA mutant and expressing amino acid exchange at R236C in KsgA gene.
In experiment [29] the test system is Bacillus subtilis. The experiment in a line: Antibacterial activity against Bacillus subtilis isolate KO-875 KsgA mutant and harboring 19G-T speD mutant and expressing amino acid exchange at G7Win speD gene after 2 days. Conditions: isolate KO-875, 48 h.

The values that follow come from ChEMBL document CHEMBL1629584, “Inactivation of KsgA, a 16S rRNA methyltransferase, causes vigorous emergence of mutants with high-level kasugamycin resistance” (2009).

≈ marks a conversion by molar mass, not a printed value.

`C[C@H]1O[C@H](O[C@H]2[C@H](O)[C@@H](O)[C@@H](O)[C@H](O)[C@@H]2O)[C@@H](N)C[C@@H]1NC(=N)C(=O)O` [KASUGAMYCIN]: the MIC in experiment [1], in experiment [2], in experiment [3], in [4], in experiment [5] and in experiment [6] was 1500 µg/mL (≈ 3.95 mM) each time. The MIC in [7] stood at 1500 µg/mL (≈ 3.95 mM); in experiment [8] it was 1500 µg/mL (≈ 3.95 mM); in [9], 5000 µg/mL (≈ 13.2 mM); in [10], 15000 µg/mL (≈ 39.5 mM); in experiment [11], 1500 µg/mL (≈ 3.95 mM); in experiment [12], 1500 µg/mL (≈ 3.95 mM). The MIC in [13] is 1500 µg/mL (≈ 3.95 mM); in [14], 1500 µg/mL (≈ 3.95 mM); in experiment [15] it was 1500 µg/mL (≈ 3.95 mM); in [16], 1500 µg/mL (≈ 3.95 mM); in [17] it was 1500 µg/mL (≈ 3.95 mM); in [18] it was 4000 µg/mL (≈ 10.5 mM). For the same molecule, the MIC in experiment [19] is 15000 µg/mL (≈ 39.5 mM); in experiment [20] it was 1500 µg/mL (≈ 3.95 mM); in [21], 15000 µg/mL (≈ 39.5 mM); in experiment [22], 500 µg/mL (≈ 1.32 mM); in experiment [23], 200 µg/mL (≈ 0.527 mM); in experiment [24], 15000 µg/mL (≈ 39.5 mM). In addition, the MIC amounted to 1500 µg/mL (≈ 3.95 mM) in experiment [25]; 1500 µg/mL (≈ 3.95 mM) in experiment [26]; 1500 µg/mL (≈ 3.95 mM) in [27]; 1500 µg/mL (≈ 3.95 mM) in experiment [28]; 15000 µg/mL (≈ 39.5 mM) in experiment [29].

For `CN[C@@H]1[C@H](O[C@H]2[C@H](O[C@H]3[C@H](O)[C@@H](O)[C@H](N=C(N)N)[C@@H](O)[C@@H]3N=C(N)N)O[C@@H](C)[C@]2(O)C=O)O[C@@H](CO)[C@H](O)[C@H]1O` [STREPTOMYCIN], the MIC in experiment [20] was found to be 15 µg/mL (≈ 0.0258 mM); in experiment [22], 5 µg/mL (≈ 0.0086 mM).

In the case of `C=C(NC(=O)C(=C)NC(=O)c1csc(C2=N[C@@H]3c4csc(n4)[C@H]4NC(=O)c5csc(n5)[C@H]([C@](C)(O)[C@@H](C)O)NC(=O)[C@H]5CSC(=N5)/C(=C/C)NC(=O)[C@H]([C@@H](C)O)NC(=O)c5csc(n5)[C@]3(CC2)NC(=O)[C@H](C)NC(=O)C(=C)NC(=O)[C@H](C)NC(=O)[C@H]([C@@H](C)CC)N[C@@H]2C=Cc3c([C@H](C)O)cc(nc3[C@H]2O)C(=O)O[C@@H]4C)n1)C(N)=O` [THIOSTREPTON], the MIC in experiment [20] was found to be 0.04 µg/mL (≈ 2.4e-05 mM); in experiment [22], 0.02 µg/mL (≈ 1.2e-05 mM).

Take `CO[C@H]1/C=C/O[C@@]2(C)Oc3c(C)c(O)c4c(O)c(c(/C=N/N5CCN(C)CC5)c(O)c4c3C2=O)NC(=O)/C(C)=C\C=C\[C@H](C)[C@H](O)[C@@H](C)[C@@H](O)[C@@H](C)[C@H](OC(C)=O)[C@@H]1C` [RIFAMPIN]: the MIC in experiment [20] turned out to be 0.1 µg/mL (≈ 0.000122 mM); in experiment [22], 0.01 µg/mL (≈ 1.22e-05 mM).
